From patent US20090076105A1, “PREVENTIVE OR THERAPEUTIC AGENT FOR CEREBRAL ISCHEMIC INJURY OR CEREBRAL ISCHEMIA REPERFUSION IN STROKE” (SANWA KAGAKU KENKYUSHO CO., LTD., priority 2006, published 2009)

Assays:
[1] = as reported in Hatsumei Kyokai Kokai Giho No. 2006-500058; cited from earlier work
[2] = tested on: mouse models with middle cerebral artery occlusion; assay: Mouse models with middle cerebral artery occlusion (MCAO, 2 h) and reperfusion: neurological symptoms, cerebral infarction size and volume; assay type: in vivo; conditions: for Distribution of neurological scores: score 0 (number of mice) / Distribution of neurological scores: score 1 (number of mice) / Distribution of neurological scores: score 2 (number of mice) / Distribution of neurological scores: score 3 (number of mice) / Neurological scores Mean ± SEM: scored 22 hours after reperfusion, n = 9; for Neurological scores Mean ± SEM: score 0-3
From the text: Mouse models with acute ischemic stroke, namely, mouse models with middle cerebral artery occlusion were used as evaluation systems. The experiment consists of three experiments, i.e., Experiment 1 to evaluate the therapeutic efficacy of fidarestat (control group and fidarestat administration group), Experiment 2 to evaluate the protective effect of fidarestat (control group and fidarestat administration group), and Experiment 3 to evaluate the role of AR (wild-type mouse group and AR gene-deficient mouse group).
Used mice (C57BL/6J line, 22 to 28 g of body weight) were subjected to right middle cerebral artery occlusion (MCAO) by the filament method under gas anesthesia over 2 hours. Thereafter, anesthesia was terminated and the mice were kept in an intensive care system (ThermoCare, Inc) at 32° C. for 4 to 6 hours. The neurological symptoms, the cerebral infarction size, and the cerebral infarction volume were used as endpoints.
The evaluation of the neurological symptoms was determined 22 hours after reperfusion based on the following four scores:
0: no neurological deficit (normal); 1: stretching of the opposite forefoot (mild); 2: contra lateral circling (moderate); and 3: loss of walking and righting reflex (severe).
Evaluations of the cerebral infarction size and the cerebral infarction volume were performed as follows. After the evaluation of the neurological symptoms, the mouse brains were removed immediately and cut into 6 coronary slices with a thickness of 2 mm. In order to discover the sites of infarction, the slices were stained with 2% triphenyltetrazolium chloride (TTC) in a darkroom for 15 minutes and then fixed in 10% formalin buffer overnight. The posterior surface of each brain slice was photographed and analyzed using a digital image analyzing system (NeuroLucida, MicroBrightfield Inc.) The cerebral infarction size and the cerebral infarction volume (%) were calculated by an indirect method.
In Experiment 1 to evaluate the therapeutic efficacy of fidarestat, fidarestat was administered to the mice at 2 mg/kg 15 minutes before reperfusion. In Experiment 2 to evaluate the protective effect of fidarestat, fidarestat was administered to the mice at 10 mg/kg 30 minutes before occlusion. Only solvent was administered to the control group. In each case, forced intragastric administration was carried out.

[3] = Experiment 1 (therapeutic efficacy): 2 mg/kg intragastric 15 minutes before reperfusion
[4] = Experiment 2 (protective effect): 10 mg/kg intragastric 30 minutes before occlusion

## NC(=O)[C@@H]1C[C@]2(NC(=O)NC2=O)c2cc(F)ccc2O1 [Fidarestat, (2S,4S)-6-fluoro-2′,5′-dioxospiro[chroman-4,4′-imidazolidine]-2-carboxamide]
[1]
  Pharmacological effect on the blood coagulation system and the circulatory system: no pharmacological effect
[2]; Experiment 1 (therapeutic efficacy): 2 mg/kg 15 minutes before reperfusion, FIG. 1, brain slice Nos. 3 and 4
  Cerebral infarction size observed after ischemic reperfusion: significantly reduced
[2]; Experiment 1 (therapeutic efficacy): 2 mg/kg 15 minutes before reperfusion, FIG. 4
  Cerebral infarction volume: the same result was also obtained
[2]; [3]
  (Dead) number of mice: (n = 2)
  Distribution of neurological scores: score 0 (number of mice): 0
  Distribution of neurological scores: score 1 (number of mice): 7
  Distribution of neurological scores: score 2 (number of mice): 2
  Distribution of neurological scores: score 3 (number of mice): 0
[2]; Experiment 1 (therapeutic efficacy): 2 mg/kg intragastric 15 minutes before reperfusion, P < 0.02 vs vehicle
  Neurological scores Mean ± SEM: 1.22 ± 0.15
[2]; Experiment 2 (protective effect): 10 mg/kg 30 minutes before occlusion, FIG. 2, brain slice Nos. 3 and 4
  Cerebral infarction size observed after ischemic reperfusion: significantly reduced
[2]; Experiment 2 (protective effect): 10 mg/kg 30 minutes before occlusion, FIG. 5
  Cerebral infarction volume: the same result was also obtained
[2]; [4]
  Distribution of neurological scores: score 0 (number of mice): 0
  Distribution of neurological scores: score 1 (number of mice): 7
  Distribution of neurological scores: score 2 (number of mice): 2
  Distribution of neurological scores: score 3 (number of mice): 0
[2]; Experiment 2 (protective effect): 10 mg/kg intragastric 30 minutes before occlusion, P < 0.05 vs vehicle
  Neurological scores Mean ± SEM: 1.22 ± 0.14
[2]; Experiments 1 and 2 (2 mg/kg 15 minutes before reperfusion; 10 mg/kg 30 minutes before occlusion)
  Effect on the worsening of the neurological symptoms observed after ischemic reperfusion: significant effect
